Values after ≈ are worked out from the molar mass of the structure shown.
system: P388; experiment: Cytotoxicity against cultured p-388 cells; format: functional, cell-based; details: Mus musculus

Row | SMILES | IC50 [µg/mL]
1 | COc1c(OC)c2c3c(nccc3c1OC)-c1cc(OC)c(=O)ccc1-2 | 1.2 (≈ 3.42 µM)
2 | COc1c(OC)c2c3c(nccc3c1OC)-c1cc(O)c(=O)ccc1-2 [GRANDIRUBRINE] | 0.18 (≈ 0.534 µM)
3 | COc1cc2ccnc3c2c(c1OC)-c1ccc(=O)ccc1-3 [PAREITROPONE] | 0.0008 (≈ 0.00275 µM)

Source: ChEMBL document CHEMBL1150550, “A novel condensed tropone-isoquinoline alkaloid, pareitropone, from Cissampelos pareira” (Bioorg Med Chem Lett, 1995)
